Assay: Plasma kinetics of pyridoxamine and metabolites in healthy male adults (LC-MS-MS)
Format: in vivo, human
From the text: Rather, in blood, the pyridoxal level was higher than the pyridoxamine level. […] The observation results were obtained in a clinical trial performed by collaborators of the applicant of this application, and are shown here simply for reference.

time to peak plasma level of pyridoxamine (unchanged substance) (300, 600 or 900 mg/dose oral at 0, 6 and 12 hours, trial by collaborators of the applicant): 3 h | plasma pyridoxine (PN) level (300, 600 or 900 mg/dose oral, FIG. 14B): did not show any substantial change
SMILES: Cc1ncc(CO)c(CN)c1O.Cl.Cl [pyridoxamine dihydrochloride]
plasma levels of pyridoxamine, pyridoxal, and 4-pyridoxic acid versus dose (300, 600, 900 mg/dose oral): increased along with the increase in dose

— patent US11253519B2, “Composition used to improve symptoms of autism spectrum disorder, and method using same for improving symptoms of autism spectrum disorder” (RENASCIENCE CO., LTD., priority 2016, dated 2022)
